Here are results for 33 molecules from US10189782B2, “Derivatives of indole for the treatment of cancer, viral infections and lung diseases” (BIOKINESIS, priority 2012, dated 2019).

This assay addresses T1, Human recombinant MKlp2 motor domain1-519, His tagged (Homo sapiens, UniProt O95235).
T1 construct: Human recombinant MKlp2 motor domain1-519, His tagged; His; purchased Cytoskeleton MP05
T1 sequence (O95235 1-519): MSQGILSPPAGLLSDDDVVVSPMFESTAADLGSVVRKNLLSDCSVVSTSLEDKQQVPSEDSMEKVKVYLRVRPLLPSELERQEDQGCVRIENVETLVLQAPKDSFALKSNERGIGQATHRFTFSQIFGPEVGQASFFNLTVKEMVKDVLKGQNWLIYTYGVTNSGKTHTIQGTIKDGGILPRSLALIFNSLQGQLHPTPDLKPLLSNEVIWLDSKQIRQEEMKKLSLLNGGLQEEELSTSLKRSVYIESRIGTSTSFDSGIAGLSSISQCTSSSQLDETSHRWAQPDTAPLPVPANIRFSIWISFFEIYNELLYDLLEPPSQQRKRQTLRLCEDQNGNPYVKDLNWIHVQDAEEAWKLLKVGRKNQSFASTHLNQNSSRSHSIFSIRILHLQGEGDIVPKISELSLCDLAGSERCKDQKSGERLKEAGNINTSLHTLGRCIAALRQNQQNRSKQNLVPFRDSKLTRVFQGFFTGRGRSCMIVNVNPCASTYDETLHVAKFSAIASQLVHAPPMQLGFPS
The assay can be described thus: Microtubule stimulated ATPase activity of the MKlp2 motor domain (Kinesin ELIPA Assay Kit). It counts as biochemical. The following applies: Table 3, 22° C., read-out: MKIp2 IC50. How it is done: Evaluation of Inhibitory Effects on the Microtubule Stimulated ATPase Activity of the MKlp2 Motor Domain.
MKlp2 ATPase activity was measured by monitoring real time free phosphate generation using the Kinesin ELIPA Assay Kit. The assay is based upon an absorbance shift (330 nm-360 nm) that occurs when 2-amino-6-mercapto-7-methylpurine ribonucleoside (MESG) is catalytically converted to 2-amino-6-mercapto-7-methylpurine in the presence of inorganic phosphate (Pi). One molecule of Pi will yield one molecule of 2-amino-6-mercapto-7-methylpurine in an essentially irreversible reaction.
All experiments were performed at 22° C.
Condition 1, compound preparation.
The compounds were dissolved in DMSO at 30× the maximum concentration to be tested. […] DMSO solutions were pipetted directly into each well.
Condition 2, reaction's “motor mix”.
The following were mixed sequentially in the specified order at RT to obtain the “motor mix”.
20 mL: 15 mM Pipes-NaOH pH 7.0, 10 mM MgCl2, 30 μM Tx (Buffer 1).
10 mL: 5× MSEG (ELIPA 1 reagent, Cat. # BK051).
10 mL: 2.5 mg/mL porcine brain microtubules (3×10 mg Cat. # MT002-XL resuspended in 12 mL of Buffer 1).
0.5 mL: 100×PNP (ELIPA 2 reagent, cat. # BK051).
Condition 3, reaction initiation.
The motor mix was pipetted into each well to obtain 80% of total volume. The reaction was initiated by adding a 20% of total volume of 5 mM ATP into each well.
The reactions were measured in a SpectraMax M2 (Molecular Devices) set in kinetic mode and 360 nm absorbance wavelength. The start protocol was 5 second rapid circular mixing, 21 readings, 30 seconds apart.

Where a name gives a salt, the structure may show the parent alone. Bounds are passed on as bounds.

For the molecule `CCOc1ccncc1/C=C(\C#N)c1c[nH]c2ccc(OC)cc12` [Example 2, (Z)-3-(4-ethoxypyridin-3-yl)-2-(5-methoxy-1H-indol-3-yl)acrylonitrile], the IC50 worked out at 0.3 µM.

`CN(C)c1ccncc1/C=C(\C#N)c1c[nH]c2ccc(Cl)cc12` [Example 6, (Z)-2-(5-chloro-1H-indol-3-yl)-3-(4-(dimethylamino)pyridin-3-yl)acrylonitrile]: the half-maximal inhibitory concentration (IC50) was 0.5 µM.

For the molecule `CN(C)c1ccncc1/C=C(\C#N)c1c[nH]c2ccc(Cl)cc12` [Example 7, (Z)-2-(5-chloro-1H-indol-3-yl)-3-(4-(dimethylamino)pyridin-3-yl)acrylonitrile, Hydrochloride], the IC50 is 0.8 µM.

`N#C/C(=C\c1cnccc1Oc1ccccc1)c1c[nH]c2ccc(Cl)cc12` [Example 10, (Z)-2-(5-chloro-1H-indol-3-yl)-3-(4-phenoxypyridin-3-yl)acrylonitrile]: the IC50 was determined as 0.3 µM.

With `N#C/C(=C\c1cnccc1Oc1ccccc1)c1c[nH]c2ccc(Br)cc12` [Example 11, (Z)-2-(5-bromo-1H-indol-3-yl)-3-(4-phenoxypyridin-3-yl)acrylonitrile], the IC50 was 0.5 µM.

In the case of `CCOc1ccncc1/C=C(\C#N)c1c[nH]c2ccc(Br)cc12` [Example 13, (Z)-2-(5-bromo-1H-indol-3-yl)-3-(4-ethoxypyridin-3-yl)acrylonitrile], the IC50 came out at 0.1 µM.

In the case of `CC(C)Oc1ccncc1/C=C(\C#N)c1c[nH]c2ccc(Br)cc12` [Example 14, (Z)-2-(5-bromo-1H-indol-3-yl)-3-(4-isopropoxypyridin-3-yl)acrylonitrile], the 50% inhibitory concentration (IC50) stood at 0.2 µM.

As for `CCSc1ccncc1/C=C(\C#N)c1c[nH]c2ccc(Br)cc12` [Example 16, (Z)-2-(5-bromo-1H-indol-3-yl)-3-(4-(ethylthio)pyridin-3-yl)acrylonitrile], the IC50 is 0.3 µM.

Take `N#C/C(=C\c1cnccc1-c1cccc(Br)c1)c1c[nH]c2ccc(Br)cc12` [Example 17, (Z)-2-(5-bromo-1H-indol-3-yl)-3-(4-(3-bromophenyl)pyridin-3-yl)acrylonitrile]: the IC50 was found to be 0.3 µM.

Regarding `N#C/C(=C\c1cnccc1-c1cccc(Br)c1)c1c[nH]c2ccc(Cl)cc12` [Example 18, (Z)-3-(4-(3-bromophenyl)pyridin-3-yl)-2-(5-chloro-1H-indol-3-yl)acrylonitrile], the half-inhibitory concentration (IC50) turned out to be 0.3 µM.

As to `N#C/C(=C\c1cnccc1Sc1ccccc1)c1c[nH]c2ccc(Br)cc12` [Example 19, (Z)-2-(5-bromo-1H-indol-3-yl)-3-(4-(phenylthio)pyridin-3-yl)acrylonitrile], the 50% inhibitory concentration (IC50) is 0.3 µM.

Regarding `N#C/C(=C\c1cnccc1SCc1ccccc1)c1c[nH]c2ccc(Br)cc12` [Example 20, (Z)-3-(4-(benzylthio)pyridin-3-yl)-2-(5-bromo-1H-indol-3-yl)acrylonitrile], the IC50 worked out at 0.2 µM.

Regarding `COc1ccc(Sc2ccncc2/C=C(\C#N)c2c[nH]c3ccc(Br)cc23)cc1OC` [Example 21, (Z)-2-(5-bromo-1H-indol-3-yl)-3-(4-((3,4-dimethoxyphenyl)thio)pyridin-3-yl)acrylonitrile], the IC50 amounted to 0.4 µM.

With `N#C/C(=C\c1cnccc1Oc1ccc(F)cc1)c1c[nH]c2ccc(Br)cc12` [Example 22, (Z)-2-(5-bromo-1H-indol-3-yl)-3-(4-(4-fluorophenoxy)pyridin-3-yl)acrylonitrile], the IC50 amounted to 0.09 µM.

As to `N#C/C(=C\c1cnccc1Oc1ccc(F)cc1)c1c[nH]c2ccc(Cl)cc12` [Example 23, (Z)-2-(5-chloro-1H-indol-3-yl)-3-(4-(4-fluorophenoxy)pyridin-3-yl)acrylonitrile], the 50% inhibitory concentration (IC50) turned out to be 0.09 µM.

For `N#C/C(=C\c1cnccc1-c1ccc(C(F)(F)F)cc1)c1c[nH]c2ccc(Br)cc12` [Example 25, (Z)-2-(5-bromo-1H-indol-3-yl)-3-(4-(4-(trifluoromethyl)phenyl)pyridin-3-yl)acrylonitrile], the IC50 came to 0.4 µM.

For `N#C/C(=C\c1cnccc1-c1ccc(C(F)(F)F)cc1)c1c[nH]c2ccc(Cl)cc12` [Example 26, (Z)-2-(5-chloro-1H-indol-3-yl)-3-(4-(4-(trifluoromethyl)phenyl)pyridin-3-yl)acrylonitrile], the IC50 came to 0.5 µM.

As for `N#C/C(=C\c1cnccc1Sc1ccc(F)cc1)c1c[nH]c2ccc(Cl)cc12` [Example 27, (Z)-2-(5-chloro-1H-indol-3-yl)-3-(4-((4-fluorophenyl)thio)pyridin-3-yl)acrylonitrile], the concentration for half-maximal inhibition (IC50) was determined as 0.3 µM.

With `N#C/C(=C\c1cnccc1Sc1ccc(F)cc1)c1c[nH]c2ccc(Br)cc12` [Example 28, (Z)-2-(5-bromo-1H-indol-3-yl)-3-(4-((4-fluorophenyl)thio)pyridin-3-yl)acrylonitrile], the IC50 came out at 0.09 µM.

In the case of `N#C/C(=C\c1cnccc1Sc1ccccn1)c1c[nH]c2ccc(Cl)cc12` [Example 30, (Z)-2-(5-chloro-1H-indol-3-yl)-3-(4-(pyridin-2-ylthio)pyridin-3-yl)acrylonitrile], the concentration for half-maximal inhibition (IC50) is 0.3 µM.

As for `N#C/C(=C\c1cnccc1Sc1ccccn1)c1c[nH]c2ccc(Br)cc12` [Example 31, (Z)-2-(5-bromo-1H-indol-3-yl)-3-(4-(pyridin-2-ylthio)pyridin-3-yl)acrylonitrile], the IC50 worked out at 0.4 µM.

In the case of `N#C/C(=C\c1cnccc1-n1cncn1)c1c[nH]c2ccc(Br)cc12` [Example 32, (Z)-3-(4-(1H-1,2,4-triazol-1-yl)pyridin-3-yl)-2-(5-bromo-1H-indol-3-yl)acrylonitrile], the IC50 turned out to be 0.06 µM.

Consider `N#C/C(=C\c1cnccc1-n1cncn1)c1c[nH]c2ccc(Cl)cc12` [Example 33, (Z)-3-(4-(1H-1,2,4-triazol-1-yl)pyridin-3-yl)-2-(5-chloro-1H-indol-3-yl)acrylonitrile], for which the IC50 came to 0.1 µM.

In the case of `COc1ccncc1/C=C(\C#N)c1c[nH]c2ccc(Cl)cc12` [Example 35, (Z)-2-(5-chloro-1H-indol-3-yl)-3-(4-methoxypyridin-3-yl)acrylonitrile, Hydrochloride], the IC50 is below 0.07 µM.

Consider `CN(C)CCSc1ccncc1/C=C(\C#N)c1c[nH]c2ccc(Br)cc12` [Example 36], for which the IC50 stood at 0.3 µM.

On to `N#C/C(=C\c1cc(C#N)ccc1Oc1ccc(F)cc1)c1c[nH]c2ccc(Br)cc12` [Example 37, (Z)-3-(2-(5-bromo-1H-indol-3-yl)-2-cyanovinyl)-4-(4-fluorophenoxy)benzonitrile], for which the concentration for half-maximal inhibition (IC50) was determined as 0.9 µM.

In the case of `COc1ccc(C#N)cc1/C=C(\C#N)c1c[nH]c2ccc(Cl)cc12` [Example 40, (Z)-3-(2-(5-chloro-1H-indol-3-yl)-2-cyanovinyl)-4-methoxybenzonitrile], the IC50 was 0.2 µM.

Take `CN(C)c1ccc(C#N)cc1/C=C(\C#N)c1c[nH]c2ccc(Cl)cc12` [Example 41, (Z)-3-(2-(5-chloro-1H-indol-3-yl)-2-cyanovinyl)-4-(dimethylamino)benzonitrile]: the IC50 turned out to be 0.4 µM.

Take `CCSc1ccc(C#N)cc1/C=C(\C#N)c1c[nH]c2ccc(Cl)cc12` [Example 42, (Z)-3-(2-(5-chloro-1H-indol-3-yl)-2-cyanovinyl)-4-(ethylthio)benzonitrile]: the 50% inhibitory concentration (IC50) was 0.6 µM.

For the molecule `COc1ccncc1/C=C(\C#N)c1c[nH]c2cc(Br)ccc12` [Example 45, (Z)-2-(6-bromo-1H-indol-3-yl)-3-(4-methoxypyridin-3-yl)acrylonitrile], the half-inhibitory concentration (IC50) was 0.2 µM.

Take `COc1ccncc1/C=C(\C#N)c1c[nH]c2cc(F)ccc12` [Example 46, (Z)-2-(6-fluoro-1H-indol-3-yl)-3-(4-methoxypyridin-3-yl)acrylonitrile]: the IC50 was determined as 0.12 µM.

For `COc1ccncc1/C=C(\C#N)c1c[nH]c2cc(Cl)ccc12` [Example 47, (Z)-2-(6-chloro-1H-indol-3-yl)-3-(4-methoxypyridin-3-yl)acrylonitrile], the half-inhibitory concentration (IC50) stood at 0.2 µM.

For the molecule `COC(=O)CC(=O)n1cc(/C(C#N)=C/c2cnccc2OC)c2cc(Br)ccc21` [Example 59, (Z)-methyl-3-(5-bromo-3-(1-cyano-2-(4-methoxypyridin-3-yl)vinyl)-1H-indol-1-yl)-3-oxopropanoate], the IC50 amounted to 0.57 µM.
